The text below walks through data of publication PMC4471201, “Micafungin concentrations 100 mg daily in plasma and burn eschars in patients with severe burn injuries” (Critical Care, 2015).

*1 amine or outer side, *2 acyl side, *3 side chain or, on linkers, in order; H or OH if unused. Where a SMILES comes first, the peptide text is derived from it. Bridges are numbered along the chain shown (N, C = ends). [ ]: non-standard residue; d: D form. The star is where a group is joined. hTyr(3S-OH,4S-OH,3'-OSO3H) = N[C@H](C(=O)O)[C@H](O)[C@@H](O)c1ccc(O)c(OS(=O)(=O)O)c1; Orn(4R-OH,5R-OH) = O=C([C@H](C[C@@H](O)[C@@H](O)N[*:3])N[*:1])[*:2]; Pro(3S-OH,4S-Me) = C[C@H]1CN[C@H](C(=O)O)[C@H]1O; X1 = CCCCCOc1ccc(-c2cc(-c3ccc(C(=O)*)cc3)no2)cc1; Gln(3R-OH) = NC(=O)C[C@@H](O)[C@H](N)C(=O)O; Hyp = O=C(O)[C@@H]1C[C@@H](O)CN1

Type in all cases: in vivo
The nature of series [1]: Tolerability of MCF 100 mg/day in severely burned patients. Particulars: 10 severely burned patients. As for the experimental part: (§1) A PK study of MCF at standard dosage (100 mg/day). Cmax (end of the infusion) and Cmin (before next dose) plasma levels of MCF were obtained after first dose and at steady state (days 4 and 5 of therapy); and on day 5 in eschars (1 to 3 hours after infusion). They were measured by HPLC. Spearman's rho test was used for bivariate correlations between MCF exposure and patient's clinical factors.
There were 10 patients (eight men; age: 18 to 77 years). […] Peak plasma concentrations after the first and repeated doses of MCF were inversely correlated with % burned TBSA (Spearman's ρ = -0.695 and -0.750 (P < 0.05)), respectively, but not with the time from burn injury. […] One patient had candidemia. The crude mortality was 40%.

Series [2] is described as follows: MCF levels in burn eschar tissue on day 5, HPLC. As to conditions: Spearman's rho test; 10 patients. The protocol: as §1
Series [3] in a line: Plasma levels of MCF (Cmax/Cmin) in severely burned patients, HPLC. As to conditions: 100 mg/day. The protocol: as §1

For the compound `CCCCCOc1ccc(-c2cc(-c3ccc(C(=O)N[C@H]4C[C@@H](O)[C@@H](O)NC(=O)[C@@H]5[C@@H](O)[C@@H](C)CN5C(=O)[C@H]([C@H](O)CC(N)=O)NC(=O)[C@H]([C@H](O)[C@@H](O)c5ccc(O)c(OS(=O)(=O)O)c5)NC(=O)[C@@H]5C[C@@H](O)CN5C(=O)[C@H]([C@@H](C)O)NC4=O)cc3)no2)cc1` [MCF, Micafungin] (X1-[Orn(4R-OH,5R-OH)]T[Hyp][hTyr(3S-OH,4S-OH,3'-OSO3H)][Gln(3R-OH)][Pro(3S-OH,4S-Me)]; lactam 1-C), the Tolerability result in series [1] is listed as “well tolerated”. For the same compound, the “Correlation of concentrations in burn eschars with % burned TBSA” value in series [2] is recorded as “not correlated”. In series [3] (after first and multiple doses), the “Plasma levels compared with MIC90 against most clinically important Candida species” value is given as “above the MIC90”. Besides, in series [3] (median of 10 patients, before next dose, plasma, HPLC), the “Plasma Cmin after first dose, median” value amounted to 0.7 µg/mL. Besides, in series [3] (median of 10 patients, days 4 and 5 of therapy, before next dose, plasma, HPLC), the “Plasma Cmin at steady state, median” value was determined as 1.0 µg/mL. For the same compound, the “Plasma Cmax at steady state, median” value in series [3] (median of 10 patients, days 4 and 5 of therapy, end of the infusion, plasma, HPLC) was 6.4 µg/mL. In series [3] (median of 10 patients, end of the infusion, plasma, HPLC), the “Plasma Cmax after first dose, median” value was determined as 4.7 µg/mL.
